Patent US9661854B2, “Molecules having pesticidal utility, and intermediates, compositions, and processes, related thereto” (Dow AgroSciences LLC, priority 2015, dated 2017)

Experiments:
Type in all cases: in vivo
[1] = test system: Beet Armyworm (Spodoptera exigua, LAPHEG); assay: Bioassay on Beet Armyworm (BAW), 128-well diet tray assay; conditions: 168 h, 50 μg/cm^2 on artificial diet, second instar larvae, 25° C., five to seven days, average of eight wells, read-out: BAW % Control (or Mortality) rating
Summary of the method: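 Second-instar larvae, one to five per well, fed artificial diet surface-treated with 50 μg/cm^2 test molecule in 90:10 acetone-water, dried before infestation; eight wells per molecule. Held at 25 °C, 14:10 light-dark for five to seven days; percent mortality averaged over wells.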

[2] = test system: Cabbage Looper (Trichoplusia ni, TRIPNI); assay: Bioassay on Cabbage Looper (CL), 128-well diet tray assay; conditions: 168 h, 50 μg/cm^2 on artificial diet, second instar larvae, 25° C., five to seven days, average of eight wells, read-out: CL % Control (or Mortality) rating
Summary of the method: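 Second-instar larvae (one to five per well) placed on artificial diet treated with 50 μg/cm^2 test molecule in 90:10 acetone-water, dried; eight wells per molecule. Held at 25° C., 14:10 light-dark, for five to seven days. Percent mortality scored per well and averaged over the eight wells.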

[3] = test system: Yellow Fever Mosquito (Aedes aegypti, AEDSAE); conditions: about 1 day-old larvae, master plate 4000 ppm solution diluted, room temperature, scored after 3 days
Description: Example B: Bioassays on Yellow Fever Mosquito (Aedes aegypti, AEDSAE (“YFM”)
Certain molecules disclosed in this document were tested against YFM using procedures described in the following paragraph. In the reporting of the results, the “YFM Rating Table” was used (See Table Section).
Master plates containing 400 μg of a molecule dissolved in 100 μL of dimethyl sulfoxide (DMSO) (equivalent to a 4000 ppm solution) are used. A master plate of assembled molecules contains 15 μL per well. To this plate, 135 μL of a 90:10 water/acetone mixture is added to each well. A robot (Biomek® NXP Laboratory Automation Workstation) is programmed to dispense 15 μL aspirations from the master plate into an empty 96-well shallow plate (“daughter” plate). There are 6 reps (“daughter” plates) created per master. The created “daughter” plates are then immediately infested with YFM larvae.
The day before plates are to be treated, mosquito eggs are placed in Millipore water containing liver powder to begin hatching (4 g into 400 mL). After the “daughter” plates are created using the robot, they are infested with 220 μL of the liver powder/larval mosquito mixture (about 1 day-old larvae). After plates are infested with mosquito larvae, a non-evaporative lid is used to cover the plate to reduce drying. Plates are held at room temperature for 3 days prior to grading. After 3 days, each well is observed and scored based on mortality. The results are indicated in the table entitled “Table ABC: Biological Results” (See Table Section).

Structure (SMILES)	mortality at 50 µg/cm2 [1]	mortality at 50 µg/cm2 [2]	YFM % Control (or Mortality) rating [3]
CC(C)c1ccccc1N1C(=O)CS/C1=N\C(=O)Nc1ccc(CCc2ncn(-c3ccc(C(F)(F)F)cc3C#N)n2)cc1 [F76, (Z)-1-(4-(2-(1-(2-cyano-4-(trifluoromethyl)phenyl)-1H-1,2,4-triazol-3-yl)ethyl)phenyl)-3-(3-(2-isopropylphenyl)-4-oxothiazolidin-2-ylidene)urea]	50 to 100%	50 to 100%	A (80-100)
CC(C)c1ccccc1N1C(=O)CS/C1=N\C(=O)Nc1ccc(CCc2ncn(-c3ccc(Br)cc3)n2)cc1 [F77, (Z)-1-(4-(2-(1-(4-Bromophenyl)-1H-1,2,4-triazol-3-yl)ethyl)phenyl)-3-(3-(2-isopropylphenyl)-4-oxothiazolidin-2-ylidene)urea]	50 to 100%	50 to 100%	A (80-100)
